Experimental data published in ChEMBL document CHEMBL4138157, “Synthesis, antibacterial properties and 2D-QSAR studies of quinolone-triazole conjugates” (2018).
In brackets after ≈: the same amount, converted by molar mass.

How the values were obtained:
Salmonella typhi = experiment: Antibacterial activity against Salmonella typhi ATCC 19430 after 18 hrs by agar dilution method; format: functional, Salmonella enterica subsp. enterica serovar Typhi; conditions: Salmonella enterica, ATCC 19430, 18 h
Streptococcus pyogenes = experiment: Antibacterial activity against Streptococcus pyogenes ATCC 19615 after 18 hrs by agar dilution method; format: functional; conditions: ATCC 19615, 18 h
Pseudomonas aeruginosa = experiment: Antibacterial activity against Pseudomonas aeruginosa ATCC 27853 after 18 hrs by agar dilution method; format: functional; conditions: ATCC 27853, 18 h
Escherichia coli = experiment: Antibacterial activity against Escherichia coli ATCC 25922 after 18 hrs by agar dilution method; format: functional; conditions: ATCC 25922, 18 h

SMILES	MIC (Salmonella typhi) [µM]	MIC (Streptococcus pyogenes) [µM]	MIC (Pseudomonas aeruginosa) [µM]	MIC (Escherichia coli) [µM]
C#CCN1CCN(c2ncc3c(=O)c(C(=O)O)cn(CC)c3n2)CC1	> 3000	750 (≈ 256 µg/mL)	> 3000	750 (≈ 256 µg/mL)
O=C(O)c1cn(C2CC2)c2cc(N3CCN(Cc4cn([C@@H](Cc5ccccc5)C(=O)O)nn4)CC3)c(F)cc2c1=O	2230 (≈ 1250 µg/mL)	2230 (≈ 1250 µg/mL)	2230 (≈ 1250 µg/mL)	–
O=C(O)c1cn(C2CC2)c2cc(N3CCN(Cc4cn(-c5ccccc5)nn4)CC3)c(F)cc2c1=O	0.2 (≈ 0.0977 µg/mL)	16.4 (≈ 8.01 µg/mL)	> 2100	0.2 (≈ 0.0977 µg/mL)
CCn1cc(C(=O)O)c(=O)c2cc(F)c(N3CCN(Cc4cn([C@@H](CC(C)C)C(=O)O)nn4)CC3)cc21	2430 (≈ 1250 µg/mL)	1210 (≈ 625 µg/mL)	1210 (≈ 625 µg/mL)	–
CCn1cc(C(=O)O)c(=O)c2cc(F)c(N3CCN(Cc4cn(-c5ccc([N+](=O)[O-])cc5)nn4)CC3)cc21	0.2 (≈ 0.104 µg/mL)	15.3 (≈ 7.98 µg/mL)	> 1960	0.2 (≈ 0.104 µg/mL)
CCn1cc(C(=O)O)c(=O)c2cc(F)c(N3CCN(Cc4cn(CC(=O)N[C@@H](Cc5ccccc5)C(=O)O)nn4)CC3)cc21	2060 (≈ 1250 µg/mL)	1030 (≈ 625 µg/mL)	2060 (≈ 1250 µg/mL)	–
C#CCN1CCN(c2cc3c(cc2F)c(=O)c(C(=O)O)cn3CC)CC1	1430 (≈ 512 µg/mL)	1430 (≈ 512 µg/mL)	> 2870	> 2870
CCn1cc(C(=O)O)c(=O)c2cnc(N3CCN(Cc4cn([C@@H](C)C(=O)O)nn4)CC3)nc21	2740 (≈ 1250 µg/mL)	1370 (≈ 625 µg/mL)	1370 (≈ 625 µg/mL)	–
CC(C)[C@@H](C(=O)O)n1cc(CN2CCN(c3cc4c(cc3F)c(=O)c(C(=O)O)cn4C3CC3)CC2)nn1	2440 (≈ 1250 µg/mL)	2440 (≈ 1250 µg/mL)	2440 (≈ 1250 µg/mL)	–
CCn1cc(C(=O)O)c(=O)c2cc(F)c(N3CCN(Cc4cn([C@H](C(=O)O)C(C)C)nn4)CC3)cc21	2500 (≈ 1250 µg/mL)	1250 (≈ 625 µg/mL)	2500 (≈ 1250 µg/mL)	–
CC(C)C[C@@H](C(=O)O)n1cc(CN2CCN(c3cc4c(cc3F)c(=O)c(C(=O)O)cn4C3CC3)CC2)nn1	2370 (≈ 1250 µg/mL)	2370 (≈ 1250 µg/mL)	2370 (≈ 1250 µg/mL)	–
CCn1cc(C(=O)O)c(=O)c2cnc(N3CCN(Cc4cn(-c5ccc([N+](=O)[O-])cc5)nn4)CC3)nc21	0.2 (≈ 0.101 µg/mL)	127 (≈ 64 µg/mL)	1010 (≈ 512 µg/mL)	0.2 (≈ 0.101 µg/mL)
CCn1cc(C(=O)O)c(=O)c2cnc(N3CCN(Cc4cn(CC(=O)N[C@@H](Cc5ccccc5)C(=O)O)nn4)CC3)nc21	212 (≈ 125 µg/mL)	2120 (≈ 1250 µg/mL)	2120 (≈ 1250 µg/mL)	–
CCn1cc(C(=O)O)c(=O)c2cc(F)c(N3CCN(Cc4cn(-c5ccc(C)cc5)nn4)CC3)cc21	32.6 (≈ 16 µg/mL)	2 (≈ 0.981 µg/mL)	> 2090	0.2 (≈ 0.0981 µg/mL)
CCn1cc(C(=O)O)c(=O)c2cnc(N3CCN(Cc4cn(-c5ccccc5)nn4)CC3)nc21	0.3 (≈ 0.138 µg/mL)	556 (≈ 256 µg/mL)	1110 (≈ 512 µg/mL)	0.3 (≈ 0.138 µg/mL)
O=C(Cn1cc(CN2CCN(c3cc4c(cc3F)c(=O)c(C(=O)O)cn4C3CC3)CC2)nn1)N[C@@H](Cc1ccccc1)C(=O)O	2020 (≈ 1250 µg/mL)	2020 (≈ 1250 µg/mL)	2020 (≈ 1250 µg/mL)	–
C[C@@H](C(=O)O)n1cc(CN2CCN(c3cc4c(cc3F)c(=O)c(C(=O)O)cn4C3CC3)CC2)nn1	2580 (≈ 1250 µg/mL)	2580 (≈ 1250 µg/mL)	2580 (≈ 1250 µg/mL)	–
C#CCN1CCN(c2cc3c(cc2F)c(=O)c(C(=O)O)cn3C2CC2)CC1	1390 (≈ 512 µg/mL)	> 2770	> 2770	> 2770
O=C(O)c1cn(C2CC2)c2cc(N3CCNCC3)c(F)cc2c1=O [CIPROFLOXACIN]	7.2 (≈ 2.39 µg/mL)	3770 (≈ 1250 µg/mL)	14.5 (≈ 4.8 µg/mL)	–
CCn1cc(C(=O)O)c(=O)c2cc(F)c(N3CCNCC3)cc21 [NORFLOXACIN]	7.5 (≈ 2.4 µg/mL)	1960 (≈ 625 µg/mL)	15 (≈ 4.79 µg/mL)	–
CCn1cc(C(=O)O)c(=O)c2cnc(N3CCNCC3)nc21 [PIPEMIDIC ACID]	7.9 (≈ 2.4 µg/mL)	2060 (≈ 625 µg/mL)	64.3 (≈ 19.5 µg/mL)	–
